How the values were obtained:
[1] = biological target: T1, Cytochrome P450 2C8 (Homo sapiens, UniProt P10632); experiment: Inhibition of CYP2C8 in human liver microsomes using amodiaquine as substrate incubated for 15 to 45 mins by; format: ADME, Microsome
T1 sequence (P10632 whole entry): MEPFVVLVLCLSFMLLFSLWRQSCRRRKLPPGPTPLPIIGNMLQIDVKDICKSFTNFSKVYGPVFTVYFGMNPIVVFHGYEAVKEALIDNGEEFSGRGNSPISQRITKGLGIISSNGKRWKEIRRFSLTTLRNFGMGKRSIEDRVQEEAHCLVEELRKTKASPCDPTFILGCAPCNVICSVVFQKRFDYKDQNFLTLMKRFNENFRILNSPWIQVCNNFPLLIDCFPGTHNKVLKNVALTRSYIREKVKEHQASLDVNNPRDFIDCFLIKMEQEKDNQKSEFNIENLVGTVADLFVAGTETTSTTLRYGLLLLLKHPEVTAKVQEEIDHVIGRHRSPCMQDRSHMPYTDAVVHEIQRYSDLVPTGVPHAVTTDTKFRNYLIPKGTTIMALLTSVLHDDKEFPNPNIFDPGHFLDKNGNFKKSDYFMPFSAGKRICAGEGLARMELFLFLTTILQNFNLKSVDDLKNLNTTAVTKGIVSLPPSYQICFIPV

[2] = biological target: T2, Cytochrome P450 3A4 (Homo sapiens, UniProt P08684); experiment: Inhibition of CYP3A4 in human liver microsomes using midazolam as substrate incubated for 15 to 45 mins by; format: ADME, Microsome
T2 sequence (P08684 whole entry): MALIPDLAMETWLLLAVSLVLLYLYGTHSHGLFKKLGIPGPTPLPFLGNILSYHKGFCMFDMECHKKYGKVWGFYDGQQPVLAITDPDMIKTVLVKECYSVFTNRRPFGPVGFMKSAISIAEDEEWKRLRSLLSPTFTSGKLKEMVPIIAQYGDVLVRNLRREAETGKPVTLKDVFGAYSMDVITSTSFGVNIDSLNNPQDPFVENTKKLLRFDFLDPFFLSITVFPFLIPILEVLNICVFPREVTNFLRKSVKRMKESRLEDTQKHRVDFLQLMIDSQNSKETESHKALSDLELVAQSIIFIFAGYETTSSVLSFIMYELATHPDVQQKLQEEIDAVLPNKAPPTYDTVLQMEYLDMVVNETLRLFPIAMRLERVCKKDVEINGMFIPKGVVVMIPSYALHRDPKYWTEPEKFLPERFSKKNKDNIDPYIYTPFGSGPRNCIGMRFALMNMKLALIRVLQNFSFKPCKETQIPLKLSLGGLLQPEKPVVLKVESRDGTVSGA

[3] = biological target: Human immunodeficiency virus type 1 reverse transcriptase (Human immunodeficiency virus 1, UniProt Q72547); experiment: Inhibition of recombinant wild type HIV-1 reverse transcriptase incubated for 40 mins in presence of poly(rA) template/oligo(dT)16 primer by Pico-Green dye based analysis
[4] = Tmax in Sprague-Dawley rat at 10 mg/kg, po measured for 0.083 to 24 hrs by LC-MS/MS analysis; format: ADME, organism-based; conditions: in vivo, time 0.083-24 hrs
[5] = Clearance in Sprague-Dawley rat at 1 mg/kg, iv measured for 0.083 to 24 hrs by LC-MS/MS analysis; format: ADME, organism-based; conditions: in vivo, time 0.083-24 hrs
[6] = tested on: Human immunodeficiency virus 1; experiment: Antiviral activity against drug-resistant HIV-1 harboring RT Y188L mutant infected in human MT4 cells assessed as protection against virus-induced cytopathicity measured after 5 days post-infection by MTT assay; format: functional, organism-based; conditions: Human immunodeficiency virus 1, MT4, 120 h
[7] = Acute toxicity in ICR mouse assessed as pathological change in lung at 2000 mg/kg, IG measured for 14 days by H and E staining based analysis; format: organism-based; conditions: in vivo, po, 336 h, time 14 day
[8] = MRT (0 to t) in Sprague-Dawley rat at 1 mg/kg, iv measured for 0.083 to 24 hrs by LC-MS/MS analysis; format: ADME, organism-based; conditions: in vivo, time 0.083-24 hrs
[9] = Stability in human plasma assessed as compound remaining at 1 uM measured after 1 hr by LC-MS/MS analysis; format: ADME, cell-free; conditions: read-out: Stability
[10] = Half life in Sprague-Dawley rat at 10 mg/kg, po measured for 0.083 to 24 hrs by LC-MS/MS analysis; format: ADME, organism-based; conditions: in vivo, time 0.083-24 hrs
[11] = Tmax in Sprague-Dawley rat at 1 mg/kg, iv measured for 0.083 to 24 hrs by LC-MS/MS analysis; format: ADME, organism-based; conditions: in vivo, time 0.083-24 hrs
[12] = Cmax in Sprague-Dawley rat at 10 mg/kg, po measured for 0.083 to 24 hrs by LC-MS/MS analysis; format: ADME, organism-based; conditions: in vivo, time 0.083-24 hrs
[13] = tested on: Human immunodeficiency virus 1; experiment: Potency index, ratio of NVP EC50 to test compound EC50 for antiviral activity against wild-type HIV-1 IIIB infected in human MT4 cells assessed as protection against virus-induced cytopathicity measured after 5 days post-infection by MTT assay; format: functional
[14] = Cmax in Sprague-Dawley rat at 1 mg/kg, iv measured for 0.083 to 24 hrs by LC-MS/MS analysis; format: ADME, organism-based; conditions: in vivo, time 0.083-24 hrs
[15] = Drug metabolism in human liver microsomes assessed as metabolic fraction at 1 uM measured up to 45 mins by LC/MS/MS analysis; format: ADME, Microsome; conditions: microsomes, 0.75 h, 1 µM
[16] = AUC (0 to t) in Sprague-Dawley rat at 1 mg/kg, iv measured for 0.083 to 24 hrs by LC-MS/MS analysis; format: ADME, organism-based; conditions: in vivo, time 0.083-24 hrs
[17] = biological target: T3, Cytochrome P450 1A2 (Homo sapiens, UniProt P05177); experiment: Inhibition of CYP1A2 in human liver microsomes using phenacetin as substrate incubated for 15 to 45 mins by; format: ADME, Microsome
T3 sequence (P05177 whole entry): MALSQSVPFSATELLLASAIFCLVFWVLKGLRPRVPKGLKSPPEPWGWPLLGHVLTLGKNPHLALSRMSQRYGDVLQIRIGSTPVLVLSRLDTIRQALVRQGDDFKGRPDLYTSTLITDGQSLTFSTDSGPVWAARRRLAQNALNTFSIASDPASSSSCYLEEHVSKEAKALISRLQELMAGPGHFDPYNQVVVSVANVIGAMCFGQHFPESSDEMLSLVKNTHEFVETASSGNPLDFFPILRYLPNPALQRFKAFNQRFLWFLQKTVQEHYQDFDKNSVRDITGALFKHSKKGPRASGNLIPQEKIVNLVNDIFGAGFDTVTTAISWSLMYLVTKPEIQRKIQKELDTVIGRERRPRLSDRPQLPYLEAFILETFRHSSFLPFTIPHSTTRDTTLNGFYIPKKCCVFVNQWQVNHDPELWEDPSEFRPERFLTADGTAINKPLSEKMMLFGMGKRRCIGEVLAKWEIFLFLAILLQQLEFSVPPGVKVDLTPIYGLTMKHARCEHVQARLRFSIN

[18] = Stability in human plasma assessed as compound remaining at 1 uM measured immediately by LC-MS/MS analysis; format: ADME, cell-free; conditions: read-out: Stability
[19] = Half life in Sprague-Dawley rat at 1 mg/kg, iv measured for 0.083 to 24 hrs by LC-MS/MS analysis; format: ADME, organism-based; conditions: in vivo, time 0.083-24 hrs
[20] = Oral bioavailability in Sprague-Dawley rat at 10 mg/kg measured for 0.083 to 24 hrs by LC-MS/MS analysis; format: ADME, organism-based; conditions: in vivo, time 0.083-24 hrs
[21] = tested on: Human immunodeficiency virus 1; experiment: Antiviral activity against wild-type HIV-1 IIIB infected in human MT4 cells assessed as protection against virus-induced cytopathicity measured after 5 days post-infection by MTT assay; format: functional, organism-based; conditions: Human immunodeficiency virus 1, IIIB, MT4, 120 h
[22] = Drug metabolism in dog liver microsomes assessed as metabolic fraction at 1 uM measured up to 45 mins by LC/MS/MS analysis; format: ADME, Canis lupus familiaris, Microsome; conditions: microsomes, 0.75 h, 1 µM
[23] = Protein binding in human plasma assessed as unbound fraction at 1 uM incubated for 6 hrs; format: ADME, cell-free
[24] = tested on: Human immunodeficiency virus 1; experiment: Antiviral activity against drug-resistant HIV-1 harboring RT Y181C mutant infected in human MT4 cells assessed as protection against virus-induced cytopathicity measured after 5 days post-infection by MTT assay; format: functional, organism-based; conditions: Human immunodeficiency virus 1, MT4, 120 h
[25] = tested on: Human immunodeficiency virus 1; experiment: Antiviral activity against drug-resistant HIV-1 harboring RT E138K mutant infected in human MT4 cells assessed as protection against virus-induced cytopathicity measured after 5 days post-infection by MTT assay; format: functional, organism-based; conditions: Human immunodeficiency virus 1, MT4, 120 h
[26] = biological target: T2, Cytochrome P450 3A4; experiment: Inhibition of CYP3A4 in human liver microsomes using testosterone as substrate incubated for 15 to 45 mins by; format: ADME, Microsome
[27] = Drug metabolism in rat liver microsomes assessed as metabolic fraction at 1 uM measured up to 45 mins by LC/MS/MS analysis; format: ADME, Microsome; conditions: 0.75 h

[2H]C([2H])([2H])c1cc(C#N)cc(C([2H])([2H])[2H])c1Oc1nc(NC2CCN(Cc3ccc(S(N)(=O)=O)cc3)CC2)nc2ccsc12
IC50 [1]: > 10 µM | IC50 [2]: > 10 µM | IC50 [3]: 190 nM | Tmax [4]: 30 min | clearance [5]: 22.9 mL/min/kg | EC50 [6]: 5.18 nM | Activity [7]: Non-toxic | MRT last [8]: 49.2 min | remaining at 1 h, 1 µM [9]: 96.5% | half-life [10]: 94.8 min | Tmax [11]: 4.8 min | Cmax [12]: 553 ng/mL | Ratio EC50 [13]: 256 | Cmax [14]: 1240 ng/mL | Fm [15]: 14.8% | AUC(0-t) [16]: 727 ng·h/mL | IC50 [17]: > 10 µM | remaining at 0 h, 1 µM [18]: 100% | half-life [19]: 58.2 min | bioavailability [20]: 29% | EC50 [21]: 0.99 nM | Fm [22]: 17.3% | Fu [23]: 0.453% | EC50 [24]: 5.86 nM | EC50 [25]: 7.75 nM | IC50 [26]: > 10 µM | Fm [27]: 28.9%

From ChEMBL document CHEMBL6134848, “Deuteration Strategy-Inspired Design of Novel Diarylpyrimidine Derivatives as Potent Non-Nucleoside Reverse Transcriptase Inhibitors Featuring Improved Efficacy, Selectivity, and Druggability” (J Med Chem, 2025)
